Experimental data from patent US7259140B2, “Heparin-binding peptides and uses thereof” (Thomas Jefferson University, priority 2003, dated 2007).
Ends that are not written are not given here.

How the values were obtained:
[1] = Hemodynamic effects in rats after administration of the LMWH Lovenox; settings: in the presence of LMWH Lovenox
Method: Next, experiments were performed in which the animals were treated with the peptides after the administration of the LMWH Lovenox®, as would happen in the clinical situation, because binding of peptides to LMWH would be expected to reduce the effects of the peptides on hemodynamic function.

[2] = system: Anti-Factor Xa Activity of the Non-Heparin Glycosaminoglycan Orgaran ®; assay: Anti-Factor Xa assay: neutralization of Orgaran in citrate or plasma in vitro; assay type: biochemical, human
In short: (§1)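 Chromogenic anti-Factor Xa kit run with UFH, enoxaparin (Lovenox) or danaparoid (Orgaran) in 0.32% citrate or citrated plasma from three volunteers. Heparin/ATIII complex formed, peptide added, then Factor Xa and dye substrate; absorbance at 405 nm, inversely proportional to remaining anti-Factor Xa activity.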

[3] = system: unfractionated heparin (thrombin-induced clot formation); assay: Thrombin neutralization assay: clotting time of citrated plasma in the presence of unfractionated heparin; assay type: biochemical, human; settings: UFH 0.5 IU/ml
In short: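 Citrated plasma from three donors was combined with unfractionated heparin (0.5 IU anti-thrombin activity/ml) and heparin-binding peptide for 1 min at room temperature in glass tubes. Thrombin was then added, and clotting time was determined by visual observation of clot formation.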

[4] = system: platelets; assay: Platelet aggregation with aggregation-inducing agents; assay type: cell-based, human; settings: 12 μg/ml; Lovenox 0.5 U/ml; collagen, ADP, ristocetin, epinephrine, SFFLRN, A23187
In short: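 Plasma from six donors, platelets equilibrated 1 min before agonist (collagen, ADP, ristocetin, epinephrine, SFFLRN, A23187; several concentrations each). Heparin-binding peptides at 12 μg/ml, Lovenox at 0.5 U/ml, protamine also tested. Percent aggregation monitored over 5 min.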

[5] = Hemodynamic effects in rats without prior Lovenox
Method: Rats were sedated, and catheters were inserted into the femoral vein and femoral artery. The femoral artery catheter was hooked up to the computerized monitoring system, and injections were made through the femoral vein. Peptides were injected into rats without prior injection of Lovenox. Two or more rats (300-350 grams) were treated with 2 mg protamine or peptide.
At the times indicated in the figures, the following actions were taken: administration of saline to insure that the animal and intubations were stable; administration of test peptide or protamine alone; then administration of protamine.

[6] = system: anti-Factor Xa Activity of Unfractionated Heparin; assay: Anti-Factor Xa assay: neutralization of unfractionated heparin in citrate or plasma in vitro; assay type: biochemical, human; settings: for Unfractionated Heparin Neutralized: UFH 0.7 U/ml
In short: as §1

ARKKAAKAARKKAAKAARKKAAKAVLVLVLVL [(ARKKAAKA)3VLVLVLVL]
effect on blood pressure and heart rate / toxicity [1]: no, or minimal, adverse effects on blood pressure or heart rate
Orgaran Neutralized ([2]; 1 μg/ml Peptide, A Plasma): 0.028 ± 0.016 U/ml
Orgaran Neutralized ([2]; 1 μg/ml Peptide, B Plasma): 0.026 ± 0.011 U/ml
Orgaran Neutralized ([2]; 1 μg/ml Peptide, C Plasma): 0.035 ± 0.010 U/ml
Orgaran Neutralized ([2]; 1 μg/ml Peptide, Citrate): 0.078 ± 0.031 U/ml
Orgaran Neutralized ([2]; 6 μg/ml Peptide, A Plasma): 0.050 ± 0.026 U/ml
Orgaran Neutralized ([2]; 6 μg/ml Peptide, B Plasma): 0.049 ± 0.021 U/ml
Orgaran Neutralized ([2]; 6 μg/ml Peptide, C Plasma): 0.075 ± 0.005 U/ml
Orgaran Neutralized ([2]; 6 μg/ml Peptide, Citrate): 0.114 ± 0.007 U/ml
Orgaran Neutralized ([2]; 12 μg/ml Peptide, A Plasma): 0.109 ± 0.019 U/ml
Orgaran Neutralized ([2]; 12 μg/ml Peptide, B Plasma): 0.083 ± 0.016 U/ml
Orgaran Neutralized ([2]; 12 μg/ml Peptide, C Plasma): 0.114 ± 0.010 U/ml
Orgaran Neutralized ([2]; 12 μg/ml Peptide, Citrate): 0.227 ± 0.017 U/ml
Orgaran Neutralized ([2]; 60 μg/ml Peptide, A Plasma): 0.281 ± 0.036 U/ml
Orgaran Neutralized ([2]; 60 μg/ml Peptide, B Plasma): 0.258 ± 0.013 U/ml
Orgaran Neutralized ([2]; 60 μg/ml Peptide, C Plasma): 0.248 ± 0.020 U/ml
Orgaran Neutralized ([2]; 60 μg/ml Peptide, Citrate): 0.380 ± 0.021 U/ml
Orgaran Neutralized ([2]; 120 μg/ml Peptide, A Plasma): 0.366 ± 0.010 U/ml
Orgaran Neutralized ([2]; 120 μg/ml Peptide, B Plasma): 0.320 ± 0.010 U/ml
Orgaran Neutralized ([2]; 120 μg/ml Peptide, C Plasma): 0.296 ± 0.011 U/ml
Orgaran Neutralized ([2]; 120 μg/ml Peptide, Citrate): 0.345 ± 0.032 U/ml
Time for clot formation ([3]; 0.30 μg peptide/0.1 ml, plasma A): 37.00 ± 2.16 s
Time for clot formation ([3]; 0.30 μg peptide/0.1 ml, plasma B): 40.00 ± 1.63 s
Time for clot formation ([3]; 0.35 μg peptide/0.1 ml, plasma B): 28.33 ± 1.70 s
Time for clot formation ([3]; 0.35 μg peptide/0.1 ml, plasma C): 45.33 ± 2.05 s
Time for clot formation ([3]; 0.40 μg peptide/0.1 ml, plasma A): 20.00 ± 0.82 s
Time for clot formation ([3]; 0.40 μg peptide/0.1 ml, plasma B): 26.67 ± 1.25 s
Time for clot formation ([3]; 0.40 μg peptide/0.1 ml, plasma C): 32.33 ± 2.05 s
Time for clot formation ([3]; 0.50 μg peptide/0.1 ml, plasma A): 17.67 ± 1.25 s
Time for clot formation ([3]; 0.50 μg peptide/0.1 ml, plasma B): 23.67 ± 0.47 s
Time for clot formation ([3]; 0.50 μg peptide/0.1 ml, plasma C): 25.67 ± 0.47 s
effect on platelet aggregation [4]: no significant inhibition or enhancement of aggregation
effect on blood pressure ([5]; 2 mg per rat, no Lovenox): In most rats no drop in blood pressure was seen
duration of transient blood pressure drop ([5]; in one rat): 1 to 2 min
effectiveness in neutralizing UFH [6]: most effective peptide
Unfractionated Heparin Neutralized ([6]; 1 μg/ml Peptide, A Plasma): 0.258 ± 0.153 U/ml
Unfractionated Heparin Neutralized ([6]; 1 μg/ml Peptide, B Plasma): 0.247 ± 0.034 U/ml
Unfractionated Heparin Neutralized ([6]; 1 μg/ml Peptide, C Plasma): 0.116 ± 0.032 U/ml
Unfractionated Heparin Neutralized ([6]; 1 μg/ml Peptide, Citrate): 0.072 ± 0.042 U/ml
Unfractionated Heparin Neutralized ([6]; 6 μg/ml Peptide, A Plasma): 0.580 ± 0.067 U/ml
Unfractionated Heparin Neutralized ([6]; 6 μg/ml Peptide, B Plasma): 0.597 ± 0.046 U/ml
Unfractionated Heparin Neutralized ([6]; 6 μg/ml Peptide, C Plasma): 0.582 ± 0.035 U/ml
Unfractionated Heparin Neutralized ([6]; 6 μg/ml Peptide, Citrate): 0.651 ± 0.084 U/ml
Unfractionated Heparin Neutralized ([6]; 12 μg/ml Peptide, A Plasma): 0.562 ± 0.050 U/ml
Unfractionated Heparin Neutralized ([6]; 12 μg/ml Peptide, B Plasma): 0.586 ± 0.053 U/ml
Unfractionated Heparin Neutralized ([6]; 12 μg/ml Peptide, C Plasma): 0.554 ± 0.049 U/ml
Unfractionated Heparin Neutralized ([6]; 12 μg/ml Peptide, Citrate): 0.505 ± 0.049 U/ml
Unfractionated Heparin Neutralized ([6]; 60 μg/ml Peptide, A Plasma): 0.535 ± 0.054 U/ml
Unfractionated Heparin Neutralized ([6]; 60 μg/ml Peptide, B Plasma): 0.444 ± 0.019 U/ml
Unfractionated Heparin Neutralized ([6]; 60 μg/ml Peptide, C Plasma): 0.539 ± 0.010 U/ml
Unfractionated Heparin Neutralized ([6]; 60 μg/ml Peptide, Citrate): 0.528 ± 0.039 U/ml
Unfractionated Heparin Neutralized ([6]; 120 μg/ml Peptide, A Plasma): 0.490 ± 0.049 U/ml
Unfractionated Heparin Neutralized ([6]; 120 μg/ml Peptide, B Plasma): 0.279 ± 0.038 U/ml
Unfractionated Heparin Neutralized ([6]; 120 μg/ml Peptide, C Plasma): 0.460 ± 0.057 U/ml
Unfractionated Heparin Neutralized ([6]; 120 μg/ml Peptide, Citrate): 0.510 ± 0.117 U/ml
